Test results as given in ChEMBL document CHEMBL1143223, “Synthesis and in vitro activity of 1-(2,3-dichlorophenyl)-N-(pyridin-3-ylmethyl)-1H-1,2,4-triazol-5-amine and 4-(2,3-dichlorophenyl)-N-(pyridin-3-ylmethyl)-4H-1,2,4-triazol-3-amine P2X7 antagonists” (Bioorg Med Chem Lett, 2008).

Columns and labels:
P2X purinoceptor 7 [1] = biological target: T1, P2X purinoceptor 7 (Homo sapiens, UniProt Q99572); experiment: Antagonist activity at human recombinant P2X7 receptor assessed as inhibition of BzATP-induced calcium flux by FLIPR assay; type: functional
T1 sequence (Q99572 whole entry): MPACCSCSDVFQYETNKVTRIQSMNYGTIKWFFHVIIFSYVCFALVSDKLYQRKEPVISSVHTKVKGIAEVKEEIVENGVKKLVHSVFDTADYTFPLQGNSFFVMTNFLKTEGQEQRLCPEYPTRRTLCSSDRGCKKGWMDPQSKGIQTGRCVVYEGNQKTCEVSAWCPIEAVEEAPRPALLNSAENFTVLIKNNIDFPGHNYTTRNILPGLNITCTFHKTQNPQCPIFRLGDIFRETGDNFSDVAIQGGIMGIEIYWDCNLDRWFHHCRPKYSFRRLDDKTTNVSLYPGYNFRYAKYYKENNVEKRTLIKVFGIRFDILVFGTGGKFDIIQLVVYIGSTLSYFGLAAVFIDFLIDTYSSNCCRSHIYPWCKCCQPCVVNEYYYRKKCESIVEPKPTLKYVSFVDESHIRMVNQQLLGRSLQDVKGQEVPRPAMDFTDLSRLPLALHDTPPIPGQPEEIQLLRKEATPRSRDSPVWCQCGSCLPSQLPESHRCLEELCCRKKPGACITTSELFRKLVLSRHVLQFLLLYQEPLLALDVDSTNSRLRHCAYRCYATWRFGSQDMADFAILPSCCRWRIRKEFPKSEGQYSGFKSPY

P2X purinoceptor 7 [2] = biological target: T2, P2X purinoceptor 7 (Rattus norvegicus, UniProt Q64663); experiment: Antagonist activity at rat recombinant P2X7 receptor assessed as inhibition of BzATP-induced calcium flux by FLIPR assay; type: functional
T2 sequence (Q64663 whole entry): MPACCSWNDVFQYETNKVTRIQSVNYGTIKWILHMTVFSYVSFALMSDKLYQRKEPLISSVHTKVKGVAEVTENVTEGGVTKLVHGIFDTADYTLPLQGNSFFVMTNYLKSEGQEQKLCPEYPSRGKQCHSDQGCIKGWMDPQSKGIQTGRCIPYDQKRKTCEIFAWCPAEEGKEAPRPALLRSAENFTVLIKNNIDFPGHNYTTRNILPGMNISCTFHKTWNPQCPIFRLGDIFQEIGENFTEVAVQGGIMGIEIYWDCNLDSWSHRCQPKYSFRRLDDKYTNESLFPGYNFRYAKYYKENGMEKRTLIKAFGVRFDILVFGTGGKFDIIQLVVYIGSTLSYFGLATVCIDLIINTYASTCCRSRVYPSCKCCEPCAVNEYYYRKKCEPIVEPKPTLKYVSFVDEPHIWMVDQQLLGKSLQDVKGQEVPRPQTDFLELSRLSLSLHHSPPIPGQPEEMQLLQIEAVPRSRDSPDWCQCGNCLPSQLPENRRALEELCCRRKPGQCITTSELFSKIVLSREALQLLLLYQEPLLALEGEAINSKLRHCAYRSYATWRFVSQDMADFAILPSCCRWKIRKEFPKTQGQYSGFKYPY

Structure (SMILES) | IC50 (P2X purinoceptor 7 [1]) [µM] | IC50 (P2X purinoceptor 7 [2]) [µM]
CCOc1ccccc1CNc1ncnn1-c1cccc(Cl)c1Cl | 0.0457 | 0.49
Cc1cccc(CNc2ncnn2-c2cccc(Cl)c2Cl)c1C | 0.0676 | 0.631
Clc1cccc(-n2ncnc2NCc2cccnc2)c1Cl | 0.117 | 1.32
Cc1ccc(CNc2ncnn2-c2cccc(Cl)c2Cl)cc1 | 0.479 | 7.08
CSc1ccccc1CNc1ncnn1-c1cccc(Cl)c1Cl | 0.049 | 0.288
Clc1cccc(-n2ncnc2NCc2ccccc2)c1Cl | 0.0479 | 0.209
COc1ccccc1CNc1ncnn1-c1cccc(Cl)c1Cl | 0.0575 | 0.708
FC(F)(F)Oc1ccccc1Nc1ncnn1-c1cccc(Cl)c1Cl | 0.617 | 5.5
CCc1ccccc1Nc1ncnn1-c1cccc(Cl)c1Cl | 0.0457 | 0.288
Cc1nnc(NCc2cccnc2-c2ccsc2)n1-c1cccc(Cl)c1Cl | 0.0398 | 0.0457
Clc1cccc(-n2ncnc2NCc2ccncc2)c1Cl | > 10 | > 10
CCOc1ccccc1Nc1ncnn1-c1cccc(Cl)c1Cl | 1.86 | 11
Clc1cccc(-n2ncnc2Nc2ccccc2)c1Cl | 0.363 | 3.89
COc1ccc(CNc2ncnn2-c2cccc(Cl)c2Cl)cc1 | 1.62 | 10.5
NC(=O)CN1CCCN(c2ncccc2CNc2nncn2-c2cccc(Cl)c2Cl)CC1 | 0.0324 | 
Clc1cccc(-n2ncnc2Nc2ccccc2N2CCOCC2)c1Cl | 3.39 | 4.9
Clc1cccc(-c2nnnn2Cc2cccnc2)c1Cl | 0.123 | 0.309
Cc1cccc(CNc2ncnn2-c2cccc(Cl)c2Cl)c1 | 0.155 | 1.02
COc1ccccc1Nc1ncnn1-c1cccc(Cl)c1Cl | 0.102 | 2.04
Clc1cccc(-n2ncnc2NCc2ccccc2Oc2cccnc2)c1Cl | 0.0468 | 0.158
COc1cccc(CNc2ncnn2-c2cccc(Cl)c2Cl)c1OC | 0.0309 | 0.135
Clc1cccc(-n2cnnc2NCc2cccnc2)c1Cl | 0.355 | 1.12
COc1cccc(CNc2ncnn2-c2cccc(Cl)c2Cl)c1 | 0.288 | 1.38
CC(C)N1CCCN(c2ncccc2CNc2nncn2-c2cccc(Cl)c2Cl)CC1 | 0.0676 | 

Continued, values first:

IC50 (P2X purinoceptor 7 [1]) [µM] | IC50 (P2X purinoceptor 7 [2]) [µM] | Structure (SMILES)
0.02 | 0.0398 | CS(=O)(=O)c1ccccc1CNc1ncnn1-c1cccc(Cl)c1Cl
0.0117 | 0.295 | Cc1ncccc1CNc1ncnn1-c1cccc(Cl)c1Cl
0.0126 | 0.0282 | Clc1cccc(-n2ncnc2NCc2cccnc2N2CCCC2)c1Cl
0.0151 | 0.138 | Clc1cccc(-n2ncnc2NCc2cccnc2-c2ccsc2)c1Cl
0.0309 | 0.0355 | Clc1cccc(-n2cnnc2NCc2cccnc2Oc2cccnc2)c1Cl
0.0178 | 0.24 | Cc1ccccc1Nc1ncnn1-c1cccc(Cl)c1Cl
0.0209 | 0.2 | Cc1ccccc1CNc1ncnn1-c1cccc(Cl)c1Cl
0.0148 | 0.012 | Clc1cccc(-n2cnnc2NCc2cccnc2N2CCCC2)c1Cl
0.011 | 0.0363 | Clc1cccc(-n2cnnc2NCc2cccnc2-c2ccsc2)c1Cl
0.0282 | 0.214 | Clc1cccc(-n2ncnc2NCc2cccnc2N2CCOCC2)c1Cl
0.00912 | 0.0257 | Clc1cccc(-n2ncnc2NCc2cccnc2N2CCC2)c1Cl
0.0138 | 0.129 | Clc1cccc(-n2ncnc2NCc2cccnc2Oc2cccnc2)c1Cl
0.0288 | 0.178 | Cc1ncccc1CNc1nncn1-c1cccc(Cl)c1Cl
